Assays:
[1] = target: T1, hOT-R (Homo sapiens, UniProt P30559); assay: In vitro binding assay (SPA), competition with [125I]-OVTA on membranes from HEK293EBNA cells expressing the hOT receptor; set-up: expressed in transfected cells; host or cells: HEK293EBNA; settings: 0.2 nM [125I]-OVTA, read-out: Binding affinity human OT-R IC50
T1 sequence (P30559 1-389): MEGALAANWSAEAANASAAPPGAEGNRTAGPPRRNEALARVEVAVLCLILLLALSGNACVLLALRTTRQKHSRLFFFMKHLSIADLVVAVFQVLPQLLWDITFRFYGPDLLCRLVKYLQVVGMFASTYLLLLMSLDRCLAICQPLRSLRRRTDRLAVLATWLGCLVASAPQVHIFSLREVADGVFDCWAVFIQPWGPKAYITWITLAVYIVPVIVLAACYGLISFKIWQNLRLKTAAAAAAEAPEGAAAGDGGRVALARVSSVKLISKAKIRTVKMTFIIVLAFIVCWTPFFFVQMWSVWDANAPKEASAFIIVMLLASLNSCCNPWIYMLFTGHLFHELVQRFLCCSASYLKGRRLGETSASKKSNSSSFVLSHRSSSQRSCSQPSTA
Description: a) In Vitro Binding Assay (SPA)
Membranes from HEK293EBNA cells expressing the hOT receptor were resuspended in buffer containing 50 mM Tris-HCl, pH 7.4,5 mM MgCl2 and 0.1% BSA (w/v). The membranes (2–4 μg) were mixed with 0.1 mg wheat-germ aglutinin (WGA) SPA bead (type A) and increasing concentrations of [^125I]-OVTA (for saturation binding experiments) or 0.2 nM [^125I]-OVTA (for competition binding experiments). Non specific binding was deter-mined in the presence of 1 μM Oxytocin. The total assay volume was 100 μl. The plates were incubated at room temperature for 30 min and counted on a Mibrobeta plate counter. The competition binding data were analysed using the iterative, nonlinear, curve-fitting program, Prism.
The binding affinities to the oxytocin receptor of the pyrrolidine derivatives claimed in the formula I were assessed using the above described in vitro biological assay. The values refer to the binding capacity of the example compounds according to formula I to the Oxytocin receptor. From the values shown in Table 1 it can be derived that said test compounds according to formula I do show a significant binding to the Oxytocin receptor.

[2] = target: T1, hOT-R; assay: Functional assay No. 1: inhibition of oxytocin-induced Ca2+-mobilization by FLIPR; format: cell-based; set-up: expressed in transfected cells; host or cells: HEK cells (CHO cells also mentioned); settings: oxytocin-induced intracellular Ca2+ mobilization, read-out: Inhibition of Ca^2+ mobilization, hOT-R IC50
Description: c) Functional Assay No. 1: Inhibition of Ca^2+-Mobilization by FLIPR
Preparing the plates: FLIPR-plates were pre-coated with PLL 10 μg/ml+0.1% gelatine for 30 min up to 2 days at 37° C. (for HEK-cells). The cells were plated out into 96-well plates (60000 cells/well).
Labelling with fluo-4: 50 μg fluo-4 were dissolved in 20 μl pluronic acid (20% in DMSO). The dissolved fluo-4 was then diluted in 10 ml DMEM-F12 medium without FCS. The medium was removed from the plates, followed by one wash with DMEM-F12 medium. Now, 100 μl of the DMEM-F12 medium containing fluo-4 were added and the cells incubated for 1–1.5 h (CHO-cells), and 1.5–2 h (HEK-cells).
Buffer: 145 mM NaCl, 5 mM KCl, 1 mM MgCl2, 10 mM Hepes, 10 mM Glucose, EGTA. Adjust to pH 7.4.
Preparation of agonists and antagonists: A minimum of 80 μl/well of agonists and anta-gonists (5×) in the above buffer (1×) were prepared (96-well plates).
The activities of the pyrrolidine derivatives according to formula I were assessed using the above described in vitro biological assay. The values refer to the capacity of the example compounds according to formula I to effectively antagonize oxytocin-induced intracellular Ca^2+-mobilization mediated by the Oxytocin receptor.

[3] = tested on: oxytocin-induced uterine contractions in the rat; assay: In vivo model for inhibition of uterine contractions (oxytocin-induced, anaesthetised DES-treated rats); settings: intravenous, PEG400/saline 50:50, 5 ml/kg infusion
Description: e) In Vivo Model for Inhibition of Uterine Contractions
Non-pregnant Charles River CD(SD) BR female rats (9–10 weeks old, 200–250 g) were treated at 18 and 24 hours before the experiment with 250 μg/kg, i.p. diethylstilbestrol (DES). For the assay, the animal was anaesthetised by urethane (1.75 g/kg, i.p.) and placed on an homeothermic operating table. The trachea was isolated and cannulated with a suitable polyethylene (PE) tubing. A midline incision at the hypogastrium level was made and one uterine horn exposed, its cephalic end cannulated with a PE240 tubing and, after filling the internal cavity with 0.2 ml of sterile physiological saline, connected to a “Gemini” amplifying/recording system via a P23ID Gould Statham pressure transducer. For the i.v. route of administration of the test compounds, one jugular vein was isolated and cannulated with a PE60 tubing connected to a butterfly needle to allow the administration by a dispensing syringe. In the case of intraduodenal administration of the test compounds, the duodenum was isolated and similarly cannulated through a small incision in its wall. One carotid artery was also isolated and cannulated with PE60 catheter and connected to a suitable syringe for blood sample collection (see below). After a stabilization period, the same dose of oxytocin was repeatedly injected intravenously at 30-min intervals. […] Further injections of the same dose of oxytocin were then made for a suitable time after treatment to assess inhibitory effects of the compounds under study. The contractile response of the uterus to oxytocin was quantified by measuring the intrauterine pressure and the number of contractions. The effect of the reference and test compounds were evaluated by comparing pre- and post-treatment pressure values. In addition, at 2, 30, 90 and 210 minutes after test compound administration, a 0.5-ml blood sample was withdrawn from the cannulated carotid artery of each experimental animal. Plasma was obtained by standard laboratory procedure and the resulting samples were stored at −20° C.
The activities of the pyrrolidine derivatives claimed in the formula I were assessed using the above described in vivo biological assay. The values refer to the capacity of the example compound according to formula I to effectively antagonize oxytocin-induced -uterine contractions in the rat.

Row | Compound | IC50 [1] | IC50 [2] | further results
1 | O=C(NCC(O)c1ccccc1)[C@@H]1C/C(=C/Cl)CN1C(=O)c1ccc(-c2ccccc2)cc1 (mixture of isomers) [(2S,4Z)-1-([1,1′-biphenyl]-4-ylcarbonyl)-4-(chloromethylene)-N-[(2RS)-2-hydroxy-2-phenylethyl]-2-pyrrolidinecarboxamide] | 350 nM |  | 
2 | CON=C1C[C@@H](C(=O)NC[C@@H](O)c2ccccc2)N(C(=O)c2cccc(Oc3ccccc3)c2)C1 (racemic) [Example 278] | 2300 nM |  | 
3 | CO/N=C1/C[C@@H](C(=O)NCCO)N(C(=O)c2ccc(-c3ccccc3)cc2)C1 [(2S,4Z)-1-([1,1′biphenyl]-4-ylcarbonyl)-N-(2-hydroxyethyl)-4-(methoxyimino)-2-pyrrolidinecarboxamide] |  | 650 nM | 
4 | CO/N=C1/C[C@@H](c2nc3ccccc3[nH]2)N(C(=O)c2ccc(-c3ccccc3)cc2)C1 [(3Z,5S)-5-(1H-benzimidazol-2-yl)-1-([1,1′-biphenyl]-4-ylcarbonyl)-3-pyrrolidinone O-methyloxime] | 630 nM | 400 nM | 
5 | CON=C1C[C@@H](C(=O)N2CCC(O)CC2)N(C(=O)c2ccc(-c3ccccc3C)cc2)C1 [Example 372, (3EZ,5S)-5-[(4-hydroxy-1-piperidinyl)carbonyl]-1-[(2′-methyl[1,1′-biphenyl]-4-yl)carbonyl]-3-pyrrolidinone O-methyloxime] | 300 nM |  | 
6 | CON=C1C[C@@H](C(=O)NCCCO)N(C(=O)c2ccc(-c3ccccc3C)cc2)C1 [Example 377, (2S,4EZ)-N-(3-hydroxypropyl)-4-(methoxyimino)-1-[(2′-methyl[1,1′-biphenyl]-4-yl)carbonyl]-2-pyrrolidinecarboxamide] | 370 nM |  | 
7 | CON=C1C[C@@H](C(=O)N[C@@H]2CCCC[C@H]2CO)N(C(=O)c2ccc(-c3ccccc3OC)cc2)C1 [Example 384, (2S,4EZ)-N-[(1R,2R)-2-(hydroxymethyl)cyclohexyl]-1-[(2′-methoxy[1,1′-biphenyl]-4-yl)carbonyl]-4-(methoxyimino)-2-pyrrolidinecarboxamide] | 550 nM |  | 
8 | CON=C1C[C@@H](C(=O)NCCC(N)=O)N(C(=O)c2ccc(-c3ccccc3C)cc2C)C1 [Example 410, (2S,4EZ)-N-(3-amino-3-oxopropyl)-1-[(2′,3-dimethyl[1,1′-biphenyl]-4-yl)carbonyl]-4-(methoxyimino)-2-prrolidinecarboxamide] | 540 nM |  | 
9 | CON=C1C[C@@H](C(=O)NCC[C@@H](O)c2ccccc2)N(C(=O)c2ccc(-c3ccccc3C)cc2)C1 [Example 433, (2S,4EZ)-N-[(3R)-3-hydroxy-3-phenylpropyl]-4-(methoxyimino)-1-[(2′-methyl[1,1′-biphenyl]-4-yl)carbonyl]-2-pyrrolidinecarboxamide] |  | 320 nM | 
10 | CON=C1C[C@@H](C(=O)NC[C@@H](O)c2ccccc2)N(C(=O)c2ccc(-c3ccccc3Cl)cc2)C1 [Example 438, (2S,4EZ)-N-[(2S)-2-hydroxy-2-phenylethyl]-4-(methoxyimino)-1-{[2′-chloro[1,1′-biphenyl]-4-yl]carbonyl}-2-pyrrolidinecarboxamide] | 170 nM |  | 
11 | CO/N=C1\C[C@@H](C(=O)NC[C@@H](O)c2ccccc2)N(C(=O)c2ccc(-c3ccccc3C)cc2)C1 [drawing 17, (2S,4E)-N-[(2S)-2-hydroxy-2-phenylethyl]-4-(methoxyimino)-1-[(2′-methyl[1,1′-biphenyl]-4-yl)carbonyl]-2-pyrrolidinecarboxamide] | 130 nM | 70 nM | 
12 | CO/N=C1/C[C@@H](C(=O)NC[C@@H](O)c2ccccc2)N(C(=O)c2ccc(-c3ccccc3C)cc2)C1 [drawing 18, (2S,4Z)-N-[(2S)-2-hydroxy-2-phenylethyl]-4-(methoxyimino)-1-[(2′-methyl[1,1′-biphenyl]-4-yl)carbonyl]-2-pyrrolidinecarboxamide] | 70 nM | 30 nM | % Reduction of Utenne Contraction ([3]; dose 0.3 mg/kg): −23.8 ± 4.1%; % Reduction of Utenne Contraction ([3]; dose 1 mg/kg): −27.6 ± 4.6%; % Reduction of Utenne Contraction ([3]; dose 3 mg/kg): −50.4 ± 5.8%; % Reduction of Utenne Contraction ([3]; dose 10 mg/kg): −65.6 ± 6.4%; % Reduction of Utenne Contraction ([3]; dose 30 mg/kg): −76.5 ± 4.24%

— patent publication US7211601B2, “Pharmaceutically active pyrrolidine derivatives” (Applied Research Systems Ars Holding N.V., priority 2000, dated 2007)
